The source of these data is article PMC3025356, “Mechanism of the Ca^2+-Dependent Interaction between S100A4 and Tail Fragments of Nonmuscle Myosin Heavy Chain IIA” (Journal of Molecular Biology, 2011).

What is called Kd is the constant that tells how readily two partners part at equilibrium.

Series [1] deals with M200 filaments. In kind it is biochemical, human. How it is done:
(§1) Fig. 9 Dissociation of M200 filaments by S100A4. (a) Initially, M200 was added (i) from a concentrated stock in 0.5 M NaCl to give a final concentration of 5 μM M200 (with respect to the polypeptide chain) in 100 mM NaCl, 10 mM Hepes, and 0.1 mM Ca^2+ at pH 7.5 and 20 °C. A biphasic rise in turbidity was recorded for 200 s (continuous line). Then 10 μM S100A4 (with respect to monomer concentration) was added (ii), followed by 0.2 mM EGTA (iii) and 1 mM Ca^2+ (iv). […] (b) M200 was diluted (i) into 100 mM NaCl to form filaments as in (a), then 5 μM S100A4 was added (ii), causing a 54% drop in turbidity. A further 5 μM S100A4 (iii) caused turbidity to fall to almost zero. (c) Stopped-flow records monitoring the dissociation of 5 μM M200 filaments on jumping [NaCl] from 100 mM to 120 mM NaCl. Other components of the buffer were 20 mM Hepes, 1 mM Mg^2+, and 100 μM Ca^2+ at pH 7.5 and 20 °C. […] In the presence of 20 μM S100A4 (lower trace), the turbidity decreased by 87% with a rate constant of 0.2 s^− 1.
Absorption spectra were recorded using a Cary 50 spectrophotometer (Varian Ltd., Walton on Thames, UK). Protein concentrations were calculated from their absorbance at 280 nm, using molar coefficients of 2980 M^− 1 cm^− 1 (M200 and S100A4) and 1490 M^− 1 cm^− 1 (M111), based on their tyrosine content (two residues per chain and one residue per chain, respectively). Myosin fragments were measured in 0.5 M NaCl buffer, and care was taken to correct for the small contribution from turbidity. Protein concentrations are stated in terms of their monomeric polypeptide chain concentration. Under the conditions used for kinetic analysis, S100A4 is predominantly a dimer,[21,25] and M200 and M111 form stable coiled coils; therefore, the molar protein concentrations are half those given in all three cases. Fluorescence emission spectra were also checked, and those preparations containing a detectable shoulder at 340 nm due to contaminating tryptophan-containing proteins were subjected to further purification. F-M16^N concentrations were based on fluorescein absorbance (ɛ490 = 78,000 M^− 1 cm^− 1). […] Quin-2 concentrations were calculated from ɛ354 = 5000 M^− 1 cm^− 1 in the absence of Ca^2+.[39] Turbidity assays used to monitor M200 filament formation and solubilisation with manual mixing were carried out using a 10-mm pathlength and a 0.1-ml microcuvette (105.250-QS; Hellma, Southend on Sea, UK) at a wavelength of 300 nm. For determination of the free Ca^2+ concentration, Fura-2 fluorescence excitation spectra were measured in the same cuvette using the 2-mm path for excitation to minimise inner filter effects.

Series [2] concerns M200 filaments. As to the kind of experiment: Stopped-flow turbidity, dissociation of M200 filaments on NaCl jump or dilution. In kind it is biochemical, human. As for the experimental part: as §1
It is of interest to know whether S100A4 drives depolymerisation solely by binding to free M monomer and allowing the polymer equilibrium to readjust (i.e., via k− 4 and k5), or whether S100A4 also binds to the filament bundle and actively depolymerises an M200 unit (via k6 and k− 7). […] In an attempt to address this question, the dissociation rate of the M200 filament was followed on jumping the NaCl concentration from 100 mM to 120 mM in the absence and in the presence of S100A4 (Fig. 9c). Under these conditions in the absence of S100A4, turbidity dropped to about 50% of its initial value with a profile fitted to a double exponential (k1obs = 0.33 s^− 1 with 12% amplitude and k2obs = 0.037 s^− 1 with 43% amplitude, relative to the total amplitude expected for a full dissociation). Therefore, at the end point of this reaction, the filament concentration decreased by about 2-fold (turbidity is proportional to concentration over this range; Fig. S5b). There should also be a corresponding rise in M200 monomer concentration, but this may be less than accounted for by the loss of filaments if the drop in turbidity was also associated with a rise in small M200 oligomers with a lower specific turbidity. […]

For series [3] the following is noted: 37 °C, 20 mM KCl, cited from earlier work. How it is done: At 10 °C, the first site became associated with negative enthalpy but retained a ...
The conditions of series [4]: cited from earlier work. As for the experimental part: S100A4 contains two tyrosine residues (one in each of the EF-hand domains), and mutating each in turn to phenylalanine enabled us to identify the source of the signal change. […] Ca^2+ binds to the S100A4 dimer with an affinity of around 2–6 μM. […] Regarding the assignment of the sites to EF1 or EF2, the E33Q mutant appears more similar to wild-type S100A4 than the D63N mutant and has an intact EF2 site, as determined by tyrosine and Quin-2 fluorescence (Fig. 3a; ...

Read-outs that look alike come from different tables or passages of the source.

As to “S100A4: recombinant S100A4 expressed in E. coli BL21(DE3)”, in the series on M200 filaments [1], the “S100A4 monomer excess per M200 chain required for full solubilisation” value is on record as 2 -fold molar excess. The substance further returned a drop in turbidity with M200 filaments [1] (5 μM S100A4, M200 filaments, 100 mM NaCl) of 54%. In addition, the “effect of excess EGTA on solubilisation” value with M200 filaments [1] (excess EGTA) was “reversed the process, allowing M200 filaments to reform”. Also, the “turbidity after further S100A4” value with M200 filaments [1] (further 5 μM S100A4 (10 μM total)) is “almost zero”. The “S100A4 monomer required to solubilise 1 mol of M200” value in the series on M200 filaments [1] (per M200 polypeptide chain) is 2 mol of S100A4 monomer. Moreover, the “decrease in turbidity on NaCl jump” value in the series on M200 filaments [2] (20 μM S100A4, 5 μM M200, 100 to 120 mM NaCl) is given as 87%. In addition, in the series with M200 filaments [2] (20 μM S100A4, NaCl jump), the “initial rate relative to absence of S100A4” value is “five times faster than in the absence of S100A4”; the “kobs, biphasic fit” value is on record as 0.21 s^− 1; the “rate constant (single exponential)” value is on record as 0.19 s^− 1. In addition, the Kd in series [3] (read-out: Kd, site with negative enthalpy) was 54 µM. Besides, in series [3] (read-out: Kd, site with positive enthalpy), the dissociation constant (Kd) is 3.3 µM. Also, the “Ca^2+ bound per S100A4 monomer” value in series [4] (amplitude of tyrosine fluorescence change on addition of Ca^2+) is 1.7 ± 0.18 Ca^2+ bound per S100A4 monomer. In series [4], the “Ca^2+ dissociation rate constant (tyrosine)” value is given as 20 s^− 1.
